Structures can show the parent of a compound that is named as a salt.

Tested on in the first series: not given
Assay: not given
Details: not given
Molecule `Cl.O=c1[nH]c(=O)n(CCCCN2CCC(c3c[nH]c4ccccc34)CC2)c2ccccc12` returned a melting point of 250 to 252 °C. The molecule `Cl.Cn1c(=O)c2ccccc2n(CCCN2CCC(OC(c3ccccc3)c3ccccc3)CC2)c1=O` gave a melting point of 127 to 128 °C. In turn, `Cl.O=c1c2ccccc2n(CCCCN2CCC(OC(c3ccccc3)c3ccccc3)CC2)c(=O)n1C1CCCCC1` had a melting point of 206 to 208 °C. Regarding `Cl.O=c1[nH]c(=O)n(CCCCN2CCN(C(c3ccccc3)c3ccccc3)CC2)c2ccccc12`, the melting point is 161 to 163 °C.

As for `Cl.O=c1[nH]c(=O)n(CCCCN2CCC(OC(c3ccccc3)c3ccccc3)CC2)c2ncccc12`, the melting point is 121 to 123 °C. Still for that read-out and setting: the value for `CS(=O)(=O)Nc1ccc2c(c1)c(=O)[nH]c(=O)n2CCCCN1CCC(OC(c2ccccc2)c2ccccc2)CC1.Cl` was 225 to 227 °C. The same measure, in the same setting: the value for `COC(=O)C(C)(C)c1ccc2c(c1)c(=O)[nH]c(=O)n2CCCCN1CCC(OC(c2ccccc2)c2ccccc2)CC1.Cl` was 223 to 225 °C; that for `COC(=O)C1(n2c(=O)c3ccccc3n(CCCCN3CCC(OC(c4ccccc4)c4ccccc4)CC3)c2=O)CCCC1.Cl` was 178 to 180 °C; that for `N#CCCCCn1c(=O)c2ccccc2n(CCCCN2CCC(OC(c3ccccc3)c3ccccc3)CC2)c1=O` (as salt: hydrochloride) [Example 93, 2,4-Dioxo-1-[4-(4-diphenylmethoxypiperidino)butyl]-1,2,3,4-tetrahydroquinazoline-3-valeronitrile] was 119 to 121 °C. In the case of `O=c1[nH]c(=O)n(CCCN2CCC(OC(c3ccccc3)c3ccccc3)CC2)c2ccccc12` [Example 1, 2,4-Dioxo-1-[3-(4-diphenylmethoxy-1-piperidinyl)propyl]-1,2,3,4-tetrahydroquinazoline], the melting point is 149 to 151 °C.

`O=c1[nH]c(=O)n(CCCCCN2CCC(OC(c3ccccc3)c3ccccc3)CC2)c2ccccc12` [Example 3, 2,4-Dioxo-1-[5-(4-diphenylmethoxy-1-piperidinyl)pentyl]-1,2,3,4-tetrahydroquinazoline] displayed a melting point of 173 to 174 °C. On to `O=c1[nH]c(=O)n(CCCCN2CCC(OC(c3ccccc3)c3ccccc3)CC2)c2cc(Cl)ccc12` [Example 9, 7-Chloro-2,4-dioxo-1-[4-(4-diphenylmethoxypiperidino)butyl]-1,2,3,4-tetrahydroquinazoline], for which the melting point lay in the range of 169 to 171 °C. `O=c1[nH]c(=O)n(CCCCN2CCC(OC(c3ccccc3)c3ccccc3)CC2)c2cc([N+](=O)[O-])ccc12` [Example 11, 2,4-Dioxo-1-[4-(4-diphenylmethoxypiperidino)butyl]-7-nitro-1,2,3,4-tetrahydroquinazoline] gave a melting point of 214 to 215 °C. The molecule `COC(=O)Cn1c(=O)c2ccccc2n(CCCN2CCC(OC(c3ccccc3)c3ccccc3)CC2)c1=O` [Example 14, Methyl 2,4-dioxo-1-[3-(4-diphenylmethoxypiperidino)propyl]-1,2,3,4-tetrahydroquinazoline-3-acetate] yielded a melting point of 109 to 110 °C. On the same count and under the same terms, the value for `COC(=O)Cn1c(=O)c2ccccc2n(CCCCN2CCC(OC(c3ccccc3)c3ccccc3)CC2)c1=O` [Example 15, Methyl 2,4-dioxo-1-[4-(4-diphenylmethoxypiperidino)butyl]-1,2,3,4-tetrahydroquinazoline-3-acetate] was 91 to 93 °C; that for `Nc1ccc2c(=O)[nH]c(=O)n(CCCCN3CCC(OC(c4ccccc4)c4ccccc4)CC3)c2c1` [Example 39, 7-Amino-2,4-dioxo-1-[4-(4-diphenylmethoxypiperidino)butyl]-1,2,3,4-tetrahydroquinazoline] was 162 to 164 °C; that for `CN(C)c1ccc2c(c1)c(=O)[nH]c(=O)n2CCCCN1CCC(OC(c2ccccc2)c2ccccc2)CC1` [Example 42, 6-Dimethylamino-2,4-dioxo-1-[4-(4-diphenylmethoxypiperidino)butyl]-1,2,3,4-tetrahydroquinazoline] was 165 to 167 °C. For the molecule `O=C(O)CC(=O)Nc1ccc2c(c1)c(=O)[nH]c(=O)n2CCCCN1CCC(OC(c2ccccc2)c2ccccc2)CC1` [Example 48, [2,4-Dioxo-1-[4-(4-diphenylmethoxypiperidino)butyl]-1,2,3,4-tetrahydro-6-quinazolinyl]carbamoylacetic acid], the melting point was in the range of 166 to 168 °C. Same read-out and setting: the value for `O=C(O)Cn1c(=O)c2ccccc2n(CCCN2CCC(OC(c3ccccc3)c3ccccc3)CC2)c1=O` [Example 49, 2,4-Dioxo-1-[3-(4-diphenylmethoxypiperidino)propyl]-1,2,3,4-tetrahydroquinazoline-3-acetic acid] was 170 to 172 °C.

For the molecule `O=C(O)Cn1c(=O)c2ccccc2n(CCCCN2CCC(OC(c3ccccc3)c3ccccc3)CC2)c1=O` [Example 50, 2,4-Dioxo-1-[4-(4-diphenylmethoxypiperidino)butyl]-1,2,3,4-tetrahydroquinazoline-3-acetic acid], the melting point lay within 184 to 186 °C. On the same count and under the same terms, to `O=C(O)CCn1c(=O)c2ccccc2n(CCCN2CCC(OC(c3ccccc3)c3ccccc3)CC2)c1=O` [Example 51, 2,4-Dioxo-1-[3-(4-diphenylmethoxypiperidino)propyl]-1,2,3,4-tetrahydroquinazoline-3-propionic acid] belongs 150 to 151 °C; to `O=C(O)Cn1c(=O)n(CCCCN2CCC(OC(c3ccccc3)c3ccccc3)CC2)c(=O)c2ccccc21` [Example 72, 2,4-Dioxo-3-[4-(4-diphenylmethoxypiperidino)butyl]-1,2,3,4-tetrahydroquinazoline-1-acetic acid], 153 to 155 °C.

With `O=C(O)CCn1c(=O)n(CCCN2CCC(OC(c3ccccc3)c3ccccc3)CC2)c(=O)c2ccccc21` [Example 75, 2,4-Dioxo-3-[3-(4-diphenylmethoxypiperidino)propyl]-1,2,3,4-tetrahydroquinazoline-1-propionic acid], the melting point fell in the range of 237 to 238 °C.

`O=C(O)CCn1c(=O)n(CCCCN2CCC(OC(c3ccccc3)c3ccccc3)CC2)c(=O)c2ccccc21` [Example 76, 2,4-Dioxo-3-[4-(4-diphenylmethoxypiperidino)butyl]-1,2,3,4-tetrahydroquinazoline-1-propionic acid]: the melting point lay within 110 to 112 °C. The same measure, in the same setting: to `O=C(O)CCCn1c(=O)n(CCCCN2CCC(OC(c3ccccc3)c3ccccc3)CC2)c(=O)c2ccccc21` [Example 78, 2,4-Dioxo-3-[4-(4-diphenylmethoxypiperidino)butyl]-1,2,3,4-tetrahydroquinazoline-1-butyric acid] belongs 227 to 229 °C; to `O=c1[nH]c2ccccc2c(=O)n1CCCN1CCC(OC(c2ccccc2)c2ccccc2)CC1` [Example 79, 2,4-Dioxo-3-[3-(4-diphenylmethoxypiperidino)propyl]-1,2,3,4-tetrahydroquinazoline], 173 to 175 °C. On the same count and under the same terms, the value for `O=c1[nH]c2ccccc2c(=O)n1CCCCN1CCC(OC(c2ccccc2)c2ccccc2)CC1` [Example 80, 2,4-Dioxo-3-[4-(4-diphenylmethoxypiperidino)butyl]-1,2,3,4-tetrahydroquinazoline] was 140 to 142 °C. `COC(=O)c1ccc2c(=O)[nH]c(=O)n(CCCCN3CCC(OC(c4ccccc4)c4ccccc4)CC3)c2c1` [Example 85, Methyl 2,4-dioxo-1-[4-(4-diphenylmethoxypiperidino)butyl]-1,2,3,4-tetrahydroquinazoline-7-carboxylate] displayed a melting point of 192 to 194 °C. `O=C(O)c1ccc2c(c1)c(=O)[nH]c(=O)n2CCCCN1CCC(OC(c2ccccc2)c2ccccc2)CC1` [Example 89, 2,4-Dioxo-1-[4-(4-diphenylmethoxypiperidino)butyl]-1,2,3,4-tetrahydroquinazoline-6-carboxylic acid] had a melting point of 161 to 163 °C. Still for that read-out and setting: to `O=C(O)c1ccc2c(=O)[nH]c(=O)n(CCCCN3CCC(OC(c4ccccc4)c4ccccc4)CC3)c2c1` [Example 90, 2,4-Dioxo-1-[4-(4-diphenylmethoxypiperidino)butyl]-1,2,3,4-tetrahydroquinazoline-7-carboxylic acid] belongs 177 to 179 °C; to `N#Cn1c(=O)c2ccccc2n(CCCCN2CCC(OC(c3ccccc3)c3ccccc3)CC2)c1=O` [Example 92, 2,4-Dioxo-1-[4-(4-diphenylmethoxypiperidino)butyl]-1,2,3,4-tetrahydroquinazoline-3-carbonitrile], 106 to 107 °C. Molecule `O=C(O)CCCCn1c(=O)c2cc(O)ccc2n(CCCCN2CCC(OC(c3ccccc3)c3ccccc3)CC2)c1=O` [Example 105, 2,4-Dioxo-1-[4-(4-diphenylmethoxypiperidino)butyl]-6-hydroxy-1,2,3,4-tetrahydroquinazoline-3-valeric acid] came in with a melting point of 234 to 236 °C.

The subject of the next series is guinea-pig eosinophils. The series is described as follows: Chemotaxis inhibition assay: LTB4-induced chemotaxis in guinea-pig eosinophils. The series is classed as cell-based. The conditions noted are these: test substance 1×10^−5 M, LTB4 10^−8 M, 2 hours. The method, then:
1) Guinea-pig Eosinophil Preparation
Male Hartley guinea-pigs received 2 ml of equine serum (Bio-Whittaker, Inc) intraperitoneally once a week for successive 8 weeks. 48 hours after the last administration, 75 ml of physiological saline was injected into the peritoneal cavity, and the fluid was recovered and centrifuged at 400 G for 5 minutes. […] Erythrocytes in the isolated cell pellet, if any, were removed by hypotonic treatment (suspended in water for 30 seconds).
2) Chemotaxis Inhibition Assay
600 μl of LTB4 suspended in Hanks-Hepes-HSA (final concentration of 10^−8 M, Cascade Biochemical Ltd.) was placed in the lower compartment of a 24-well plate and kept at 37° C. for 30 minutes in a CO2 gas incubator. After mounting a Chemotaxicell (polycarbonate membrane, pore size 3 μm, thickness 10 μm), which served as an upper compartment, on the 24-well plate described above, 200 μl of eosinophil suspension (5×10^6 cells/ml), which had been incubated at 37° C. for 15 minutes in a thermostat chamber, was added to the upper compartment. After allowing to react for 2 hours in the CO2 gas incubator, the Chemotaxicell was removed, and 60 μl of 2% (w/v) EDTA solution in physiological saline was added to the lower compartment. After cooling on ice, the cells which underwent the chemotaxis into the lower compartment were counted using a blood cell counter (Coulter Counter (trade name)). In the procedure described above, the test substance was dissolved in N,N-dimethylformamide (DMF) and added to the upper and lower compartments at the final concentration of 10^−5 M.
% Chemotaxis inhibition=[…] [Equation 2]
The results are shown in [Table 2].
For `CC(=O)OCC(=O)Nc1ccc2c(c1)c(=O)[nH]c(=O)n2CCCCN1CCC(OC(c2ccccc2)c2ccccc2)CC1` [Example 46, 6-Acetoxyacetamide-2,4-dioxo-1-[4-(4-diphenylmethoxypiperidino)butyl]-1,2,3,4-tetrahydroquinazoline], the “Inhibition (%) of LTB4-induced chemotaxis” value was 52%.

A word on the melting point: it is the temperature, or range, at which the solid turns liquid.

Source of the values: US6407116B1, “Nitrogenous fused-ring compounds, process for the preparation of the same, and drugs” (Takeda Chemical Industries, Inc., priority 1997, dated 2002).
